From PubChem BioAssay AID328 (DTP/NCI, 2004) come the findings set out here.

The test system of the assay is BDF1 mice, P388 leukemia ip, median survival T/C. Kind of assay: NCI In Vivo Anticancer Drug Screen. Data for tumor model P388 Leukemia (intraperitoneal) in B6D2F1 (BDF1) mice. The conditions noted are these: endpoint: median survival time, higher = longer survival. The gist of the method:
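In tumour-bearing mice, survival after compound treatment is set against the vehicle group and given as a quotient.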

Where [1] appears, read: dose: 50.0 mg/kg/injection, schedule: Q04DX003 (ip), vehicle: Klucel (hydroxypropylcellulose) (HPC).
The mark [2] stands for this setting: dose: 100.0 mg/kg/injection, schedule: Q04DX003 (ip), vehicle: Klucel (hydroxypropylcellulose) (HPC).
[3] abbreviates: dose: 200.0 mg/kg/injection, schedule: Q04DX003 (ip), vehicle: Klucel (hydroxypropylcellulose) (HPC).
Setting [4] is: dose: 50.0 mg/kg/injection, schedule: Q01DX009 (ip), vehicle: Klucel (hydroxypropylcellulose) (HPC).
[5] abbreviates: dose: 100.0 mg/kg/injection, schedule: Q01DX009 (ip), vehicle: Klucel (hydroxypropylcellulose) (HPC).
[6] abbreviates: dose: 200.0 mg/kg/injection, schedule: Q01DX009 (ip), vehicle: Klucel (hydroxypropylcellulose) (HPC).
Where [7] appears, read: dose: 50.0 mg/kg/injection, schedule: Q01DX009 (ip), vehicle: saline with Tween-80.
The mark [8] stands for this setting: dose: 25.0 mg/kg/injection, schedule: Q01DX009 (ip), vehicle: saline with Tween-80.
[9] abbreviates: dose: 100.0 mg/kg/injection, schedule: Q01DX009 (ip), vehicle: saline with Tween-80.
Where [10] appears, read: dose: 100.0 mg/kg/injection, schedule: Q04DX003 (ip), vehicle: saline with Tween-80.
Where [11] appears, read: dose: 200.0 mg/kg/injection, schedule: Q04DX003 (ip), vehicle: saline with Tween-80.
The mark [12] stands for this setting: dose: 400.0 mg/kg/injection, schedule: Q04DX003 (ip), vehicle: saline with Tween-80.

SMILES strings stand for the structures. Several values for one entry are separate records, joined by “and”; a condition that tells them apart may be missing. Identical values can stand only once. Toxic doses and inconclusive results are not listed.

Consider `CCOC(=S)SCC(=O)Nc1ccc(I)cc1`, for which the T/C was 93 % of control (dose: 15.0 mg/kg/injection, schedule: Q01DX009 (ip), vehicle: saline with Tween-80); 95 % of control (dose: 30.0 mg/kg/injection, schedule: Q01DX009 (ip), vehicle: saline with Tween-80); 98 % of control (dose: 60.0 mg/kg/injection, schedule: Q01DX009 (ip), vehicle: saline with Tween-80).

As to `COC1OC(CO)C(O)C(O)C1O` (centres undefined), the T/C runs as follows: (dose: 6.25 mg/kg/injection, schedule: Q01DX009 (ip), vehicle: saline) 97 % of control; (dose: 12.5 mg/kg/injection, schedule: Q01DX009 (ip), vehicle: saline) 106 % of control; (dose: 25.0 mg/kg/injection, schedule: Q01DX009 (ip), vehicle: saline) 97 % of control; (dose: 100.0 mg/kg/injection, schedule: Q01DX009 (ip), vehicle: saline) 104 % of control; (dose: 200.0 mg/kg/injection, schedule: Q01DX009 (ip), vehicle: saline) 106 % of control.

`Cc1c[nH]c(=O)[nH]c1=O`: the T/C was 98 % of control (dose: 390.0 mg/kg/injection, schedule: Q04DX003 (ip), vehicle: saline with Tween-80); 98 % of control (dose: 390.0 mg/kg/injection, schedule: Q## X003 (ip), vehicle: saline with Tween-80); 93 % of control (dose: 520.0 mg/kg/injection, schedule: Q04DX003 (ip), vehicle: saline with Tween-80); 93 % of control (dose: 520.0 mg/kg/injection, schedule: Q## X003 (ip), vehicle: saline with Tween-80).

On to `O=C(O)CCCCCNC(=O)c1ccccc1`, for which the T/C is, setting by setting: under setting [1], 118 % of control; (dose: 100.0 mg/kg/injection, schedule: Q01DX001 (ip), vehicle: Klucel (hydroxypropylcellulose) (HPC)) 100 % of control; under setting [2], 100 % of control; (dose: 200.0 mg/kg/injection, schedule: Q01DX001 (ip), vehicle: Klucel (hydroxypropylcellulose) (HPC)) 104 % of control; under setting [3], 100 % of control; (dose: 400.0 mg/kg/injection, schedule: Q01DX001 (ip), vehicle: Klucel (hydroxypropylcellulose) (HPC)) 100 % of control.

As for `C#CCOC(=O)NC1CCCCC1`, the T/C by setting is: under setting [4], 100 % of control; under setting [1], 100 % of control; under setting [5], 100 % of control; under setting [2], 95 % of control; under setting [6], 100 % of control; under setting [3], 109 % of control.

For `O=C(Nc1ccccc1C(=O)O)c1cc([N+](=O)[O-])cc([N+](=O)[O-])c1`, the T/C under setting [7] is 117 % of control.

With `Cc1ccccc1P(=O)(c1ccccc1C)c1ccccc1C`, the T/C reads like this: under setting [8], 90 % of control; under setting [7], 94 % of control; under setting [9], 94 % of control.

In the case of `CC(=O)c1ccc(NC(=O)C(F)(F)F)cc1`, the T/C by setting is: (dose: 50.0 mg/kg/injection, schedule: Q04DX003 (ip), vehicle: saline with Tween-80) 111 % of control; under setting [10], 96 % of control; under setting [11], 103 % of control; under setting [12], 103 % of control.

Take `CC(C)NC(=O)c1ccccc1Sc1ccccc1C(=O)NC(C)C`: the T/C under setting [10] was 105 % of control, the T/C under setting [11] was 105 % of control and the T/C under setting [12] is 99 % of control.

Turning to `Nc1c(C(=O)O)cccc1C(=O)O`, the T/C under setting [9] was 104 % of control; the T/C under setting [10] was 100 % of control; the T/C (dose: 200.0 mg/kg/injection, schedule: Q01DX009 (ip), vehicle: saline with Tween-80) was 109 % of control; the T/C under setting [11] is 100 % of control; the T/C (dose: 400.0 mg/kg/injection, schedule: Q01DX009 (ip), vehicle: saline with Tween-80) was 113 % of control; the T/C under setting [12] was 95 % of control.

As for `Oc1ccccc1/C=N\c1nccs1`, the T/C was 111 % of control (dose: 25.0 mg/kg/injection, schedule: Q01DX009 (ip), vehicle: Klucel (hydroxypropylcellulose) (HPC)); 96 % of control and 109 % of control under setting [4]; 96 % of control and 118 % of control under setting [5]; 122 % of control and 123 % of control under setting [6].

Take `O=C1CN(CCN2CC(=O)NC(=O)C2)CC(=O)N1`: the T/C is 105 % of control (dose: 3.12 mg/kg/injection, schedule: Q03HX024 (ip), vehicle: steriod suspending solution); 117 % of control (dose: 6.25 mg/kg/injection, schedule: Q03HX024 (ip), vehicle: steriod suspending solution); 94 % of control (dose: 12.5 mg/kg/injection, schedule: Q01DX009 (ip), vehicle: steriod suspending solution); 152 % of control (dose: 12.5 mg/kg/injection, schedule: Q03HX024 (ip), vehicle: steriod suspending solution); 314 % of control and 222 % of control (dose: 15.0 mg/kg/injection, schedule: Q01DX010 (ip), vehicle: saline); 105 % of control (dose: 25.0 mg/kg/injection, schedule: Q01DX009 (ip), vehicle: steriod suspending solution). Moreover, the T/C was 152 % of control (dose: 25.0 mg/kg/injection, schedule: Q03HX024 (ip), vehicle: steriod suspending solution); 272 % of control and 176 % of control (dose: 30.0 mg/kg/injection, schedule: Q01DX010 (ip), vehicle: saline); 123 % of control (dose: 50.0 mg/kg/injection, schedule: Q03HX024 (ip), vehicle: steriod suspending solution); 118 % of control and 219 % of control (dose: 60.0 mg/kg/injection, schedule: Q01DX010 (ip), vehicle: saline); 100 % of control (dose: 100.0 mg/kg/injection, schedule: Q01DX001 (ip), vehicle: steriod suspending solution); 164 % of control (dose: 100.0 mg/kg/injection, schedule: Q01DX009 (ip), vehicle: steriod suspending solution). Also, the T/C (dose: 100.0 mg/kg/injection, schedule: Q04DX003 (ip), vehicle: steriod suspending solution) was 105 % of control; the T/C (dose: 200.0 mg/kg/injection, schedule: Q01DX001 (ip), vehicle: steriod suspending solution) was 105 % of control; the T/C (dose: 200.0 mg/kg/injection, schedule: Q04DX003 (ip), vehicle: steriod suspending solution) is 111 % of control; the T/C (dose: 400.0 mg/kg/injection, schedule: Q01DX001 (ip), vehicle: steriod suspending solution) is 111 % of control; the T/C (dose: 800.0 mg/kg/injection, schedule: Q01DX001 (ip), vehicle: steriod suspending solution) was 117 % of control; the T/C (dose: 800.0 mg/kg/injection, schedule: Q04DX003 (ip), vehicle: steriod suspending solution) was 182 % of control.

With `c1ccc(C(Nc2nccs2)Nc2nccs2)cc1`, the T/C runs as follows: (dose: 12.5 mg/kg/injection, schedule: Q01DX009 (ip), vehicle: saline with Tween-80) 112 % of control; under setting [8], 108 % of control; under setting [7], 96 % of control and 108 % of control.

With `CC(=O)OC1(C)CC(C)(C)N=N1` (centres undefined), the T/C was 107 % of control (dose: 25.0 mg/kg/injection, schedule: Q01DX005 (ip), vehicle: water); 105 % of control (dose: 50.0 mg/kg/injection, schedule: Q01DX005 (ip), vehicle: water); 105 % of control (dose: 100.0 mg/kg/injection, schedule: Q01DX005 (ip), vehicle: water); 114 % of control (dose: 200.0 mg/kg/injection, schedule: Q01DX005 (ip), vehicle: water); 107 % of control (dose: 400.0 mg/kg/injection, schedule: Q01DX005 (ip), vehicle: water).

In the case of `CCCC/C=C/CO`, the T/C under setting [7] was 108 % of control and the T/C under setting [9] is 103 % of control.

`CC(=O)C(C(C)=O)c1ccccc1.CC(=O)C(C(C)=O)c1ccccc1.[Ni]`: the T/C was 110 % of control (dose: 3.0 mg/kg/injection, schedule: Q01DX009 (ip), vehicle: Klucel (hydroxypropylcellulose) (HPC)); 100 % of control (dose: 6.0 mg/kg/injection, schedule: Q01DX009 (ip), vehicle: Klucel (hydroxypropylcellulose) (HPC)); 100 % of control (dose: 6.0 mg/kg/injection, schedule: Q04DX003 (ip), vehicle: other); 100 % of control (dose: 12.0 mg/kg/injection, schedule: Q01DX009 (ip), vehicle: Klucel (hydroxypropylcellulose) (HPC)); 95 % of control (dose: 12.0 mg/kg/injection, schedule: Q04DX003 (ip), vehicle: other); 100 % of control (dose: 25.0 mg/kg/injection, schedule: Q04DX003 (ip), vehicle: other).
